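In this assay, cells in 96-well plates receive the compound at five concentrations for 48 hours. Endpoints are linearly interpolated between the surrounding concentrations. GI50 marks 50% less growth. Definition used: TGI = concentration required for complete inhibition of growth.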

Test systems include TK-10 renal; HT29 colon; OVCAR-3 ovarian; HCC-2998 colon; SK-MEL-2 melanoma; NCI-H23 lung; SK-MEL-5 melanoma; UACC-62 melanoma; NCI-H226 lung; SK-MEL-28 melanoma.
Holding throughout (assay): growth of human tumour cells (NCI), 48 h

Take `CCN(CC)CCNc1ccc([N+](=O)[O-])c2sc3cc(Cl)ccc3c(=O)c12`: the GI50 in the assay on TK-10 renal was 2.97 µM; in the assay with HT29 colon it was 1.7 µM; in the assay on OVCAR-3 ovarian it was 4.62 µM; in the assay on HCC-2998 colon, 11.1 µM; in the assay on SK-MEL-2 melanoma, 21.8 µM; in the assay with NCI-H23 lung, 13.9 µM. For the same molecule, the figures for the GI50 in the assay with SK-MEL-5 melanoma and with UACC-62 melanoma were 3.59 µM and 3.11 µM, respectively. In addition, the TGI with TK-10 renal was > 100 µM; in the assay on HT29 colon, > 100 µM; in the assay on OVCAR-3 ovarian it was 32.3 µM; with HCC-2998 colon it was > 100 µM; in the assay on SK-MEL-2 melanoma, > 100 µM; in the assay with NCI-H23 lung it was > 100 µM. Besides, the TGI in the assay with SK-MEL-5 melanoma and in the assay with UACC-62 melanoma was > 100 µM in each case.
As for `COc1cc2c(cc1OCCCOc1ccc(-c3cc4ccccc4c4ccccc34)cc1)N=C[C@@H]1CCCN1C2=O`, the GI50 is 1.28 µM in the assay on NCI-H226 lung; 0.646 µM in the assay with TK-10 renal; 0.899 µM with HT29 colon; 0.252 µM in the assay on OVCAR-3 ovarian; 0.555 µM in the assay on SK-MEL-28 melanoma; 1.21 µM in the assay with HCC-2998 colon. Further, the GI50 is 0.0467 µM in the assay with SK-MEL-2 melanoma, 1.41 µM with NCI-H23 lung, 1.24 µM in the assay with SK-MEL-5 melanoma and 0.632 µM in the assay with UACC-62 melanoma. In addition, the TGI in the assay on NCI-H226 lung amounted to 2.73 µM; in the assay with TK-10 renal, 1.79 µM; in the assay with HT29 colon, 2.11 µM; in the assay with OVCAR-3 ovarian, 0.786 µM; in the assay with SK-MEL-28 melanoma, 1.38 µM; in the assay on HCC-2998 colon, 2.45 µM. Further, the TGI in the assay on SK-MEL-2 melanoma came to 0.521 µM; with NCI-H23 lung, 2.74 µM; in the assay on SK-MEL-5 melanoma, 2.49 µM; in the assay on UACC-62 melanoma it was 2.09 µM.
Take `Cc1cc(Nc2ccc(Cl)cc2)nc(NCCCNc2ccnc3cc(Cl)ccc23)n1`: the GI50 is 1.73 µM in the assay with TK-10 renal; 1.81 µM in the assay on SK-MEL-28 melanoma; 1.86 µM in the assay with SK-MEL-2 melanoma; 1.57 µM with SK-MEL-5 melanoma; 1.79 µM in the assay on UACC-62 melanoma. For the same molecule, the TGI with TK-10 renal was 3.19 µM; with SK-MEL-28 melanoma, 3.31 µM; in the assay with SK-MEL-2 melanoma, 3.57 µM; with SK-MEL-5 melanoma, 2.91 µM; in the assay on UACC-62 melanoma, 3.58 µM.
With `COC(=O)C(NC(=O)c1ccccc1)C(c1c(O)cc(O)cc1O)P(=O)(OC)OC` (stereo not drawn), the TGI with NCI-H226 lung, in the assay with TK-10 renal, with HT29 colon, in the assay on SK-MEL-28 melanoma, in the assay with HCC-2998 colon and in the assay on SK-MEL-2 melanoma was > 100 µM throughout. Moreover, the TGI in the assay on NCI-H23 lung, with SK-MEL-5 melanoma and in the assay with UACC-62 melanoma was > 100 µM each time.
As for `CCOC(=O)c1csc(NC(=O)C(C)N2CCOCC2)n1` (stereo not drawn), the TGI in the assay with TK-10 renal, in the assay on HT29 colon, in the assay with OVCAR-3 ovarian, in the assay with SK-MEL-28 melanoma, in the assay with HCC-2998 colon and with SK-MEL-2 melanoma was > 100 µM each time. The TGI in the assay with NCI-H23 lung, in the assay with SK-MEL-5 melanoma and in the assay with UACC-62 melanoma was > 100 µM each time.
In the case of `NC(Cc1ccccc1CP(=O)(O)O)C(=O)O` (stereo not drawn), the TGI in the assay on TK-10 renal, in the assay on HT29 colon, in the assay on OVCAR-3 ovarian, in the assay with SK-MEL-28 melanoma, in the assay with HCC-2998 colon and with SK-MEL-2 melanoma was > 100 µM throughout. For the same molecule, the TGI with NCI-H23 lung, with SK-MEL-5 melanoma and in the assay on UACC-62 melanoma was > 100 µM each time.
Turning to `c1cncc([O][Ge]([O]c2cccnc2)([O]c2cccnc2)[O]c2cccnc2)c1`, the GI50 with NCI-H226 lung, in the assay with TK-10 renal, in the assay with HT29 colon, in the assay with OVCAR-3 ovarian, with SK-MEL-28 melanoma and in the assay on HCC-2998 colon was > 100 µM in each case. In addition, the GI50 with SK-MEL-2 melanoma, with NCI-H23 lung, in the assay with SK-MEL-5 melanoma and with UACC-62 melanoma was > 100 µM each time. The TGI in the assay with NCI-H226 lung, in the assay on TK-10 renal, in the assay on HT29 colon, in the assay with OVCAR-3 ovarian, with SK-MEL-28 melanoma and with HCC-2998 colon was > 100 µM in each case. Also, the TGI in the assay on SK-MEL-2 melanoma, with NCI-H23 lung, with SK-MEL-5 melanoma and in the assay with UACC-62 melanoma was > 100 µM in each case.

(Values after PubChem BioAssay (NCI).)
